Here are results for four compounds from US20100196325A1 (priority 2007, published 2010).

Entries after “also recorded” stand apart in the source; their conditions may differ. Like-named read-outs stand apart in the source and are kept apart here.

Series [1] relates to recombinant vaccinia virus GLV-1h68. In kind it is cell-based.
Series [2] concerns modified vaccinia virus, such as GLV-1h68. Details: species or system patient. The following applies: human, in vivo.
A further series deals with tumor. Details: species or system patient. The settings on record: human, in vivo.
For series [3] the following is noted: human, in vivo; for Side effects from the virus: iv.
Series [4] concerns recombinant vaccinia virus GLV-1h68. It counts as cell-based. The source holds these as a separate data set.
Series [5] deals with A549 lung carcinoma cells. Details: species or system nude mice. The following applies: mouse, in vivo.
For series [6], the system named is PANC-1 human pancreatic carcinoma cells. Details: species or system nude mice. The settings on record: mouse, in vivo.
The subject of series [7] is recombinant vaccinia virus GLV-1h68. It counts as cell-based. This is another data set of the same source.
For series [8], the system named is GI-101A human breast carcinoma cells. Details: species or system nude mice. The settings on record: mouse, in vivo.
Series [9] is described as follows: Pock formation (systemic toxicity) after i.v. GLV-1h68 in GI-101A tumor-bearing mice. The following applies: 80 days after virus injection; GLV-1h68 virus-treated animals given four doses of irinotecan 80 mg/kg i.p.; n=8.

On to `N.N.[Cl][Pt][Cl]` [Cisplatin], for which, in [1], the “Concentration at which growth of GLV-1h68 was completely inhibited” value was at least 100 µM and the “Effect on GLV-1h68 growth in GI-101A cells (in words)” value is given as “started to inhibit; also recorded: significantly inhibited the virus growth”. For the same compound, in [2], the “Viral load in the bloodstream” value was “is maintained or increases before subsequently decreasing”, the “Viral load in the bloodstream: decrease” value is on record as “decreases more quickly; also recorded: decreases more rapidly” and the “Viral load in the bloodstream: increase” value is recorded as “increased to a lesser extent”. Moreover, the “Viral load in the bloodstream” value in series [2] (iv) is “decreases over the period of time”. For the same compound, the Tumor growth entry in the series with tumor is given as “tumor growth is arrested or decreases”. Besides, in series [3], the “Body weight and pock formation” value was “body weight of the patient is improved and any pock formation dissipates”; the “Patient's symptoms” value is recorded as “symptoms subside”; the Virus-associated side effects result is listed as “Fewer virus-associated side effects”; the “Side effects from the virus” value is on record as “suffers fewer side effects from the virus”.

`COc1cccc2c1C(=O)c1c(O)c3c(c(O)c1C2=O)C[C@@](O)(C(=O)CO)C[C@@H]3O[C@H]1C[C@H](N)[C@H](O)[C@H](C)O1` [Doxorubicin]: in series [4], the “Concentration at which growth of GLV-1h68 was completely inhibited” value was at least 1 µM and the “Effect on GLV-1h68 growth in GI-101A cells (in words)” value is on record as “started to inhibit”. In series [2], the “Viral load in the bloodstream” value is given as “is maintained or increases before subsequently decreasing”, the “Viral load in the bloodstream: decrease” value is given as “decreases more quickly; also recorded: decreases more rapidly” and the “Viral load in the bloodstream: increase” value was “increased to a lesser extent”. Also, in series [2] (iv), the “Viral load in the bloodstream” value is reported as “decreases over the period of time”. Besides, the Tumor growth entry in the series with tumor is reported as “tumor growth is arrested or decreases”. In [3], the “Body weight and pock formation” value is “body weight of the patient is improved and any pock formation dissipates”; the “Patient's symptoms” value is reported as “symptoms subside”; the Virus-associated side effects entry is reported as “Fewer virus-associated side effects”; the “Side effects from the virus” value is “suffers fewer side effects from the virus”.

Turning to `Nc1ccn(C2OC(CO)C(O)C2(F)F)c(=O)n1` (centres unmarked) [Gemcitabine, 4-amino-1-[3,3-difluoro-4-hydroxy-5-(hydroxymethyl)tetrahydrofuran-2-yl]-1H-pyrimidine-2-one], the “Effect on tumor growth (in words)” value in series [5] is on record as “did not cause any inhibition of tumor growth”. Besides, the “Effect on tumor growth (in words)” value in series [6] is “decrease tumor growth in the mice at both 50 mg/kg and 100 mg/kg doses to some extent”. In addition, the “Concentration at which growth of GLV-1h68 was completely inhibited” value in series [7] was at least 1.0 µM. Also, in series [2], the “Viral load in the bloodstream” value is listed as “is maintained or increases before subsequently decreasing”, the “Viral load in the bloodstream: decrease” value is on record as “decreases more quickly; also recorded: decreases more rapidly” and the “Viral load in the bloodstream: increase” value is “increases to a lesser extent”. The “Viral load in the bloodstream” value in series [2] (iv) is recorded as “decreases over the period of time”. The Tumor growth entry in the series with tumor was “tumor growth is arrested or decreases”. Moreover, the Tumor growth result in the series with tumor (iv) is “tumor growth is arrested or decreases”. Further, in series [3], the “Body weight and pock formation” value is “body weight of the patient is improved and any pock formation dissipates”; the “Patient's symptoms” value is recorded as “symptoms subside”; the Virus-associated side effects result was “Fewer virus-associated side effects”; the “Side effects from the virus” value is “suffers fewer side effects from the virus”.

Turning to `CCc1c2c(nc3ccc(OC(=O)N4CCC(N5CCCCC5)CC4)cc13)-c1cc3c(c(=O)n1C2)COC(=O)[C@]3(O)CC` [Irinotecan], the “Effect on tumor growth (in words)” value in series [8] is listed as “increased tumor growth”. In series [2], the “Viral load in the bloodstream” value is “is maintained or increases before subsequently decreasing”, the “Viral load in the bloodstream: decrease” value is on record as “decreases more quickly; also recorded: decreases more rapidly” and the “Viral load in the bloodstream: increase” value was “increased to a lesser extent”. Further, in series [2] (iv), the “Viral load in the bloodstream” value is “decreases over the period of time”. For the same compound, the Tumor growth entry in the series with tumor is reported as “tumor growth is arrested or decreases”. The Tumor growth result with tumor (iv) was “tumor growth is arrested or decreases”. In addition, in series [3], the “Body weight and pock formation” value was “body weight of the patient is improved and any pock formation dissipates”; the “Patient's symptoms” value is “symptoms subside”; the Virus-associated side effects entry is “Fewer virus-associated side effects”; the “Side effects from the virus” value was “suffers fewer side effects from the virus”. Also, the “Animals in which no pocks were observed on any part of the body” value in [9] is given as 7 out of 8.
